Results on 57 compounds are retold here after patent publication US9433621B2, “Substituted pyridine and pyrimidine derivatives and their use in treating viral infections” (Merck Sharp & Dohme Corp., priority 2010, dated 2016).

The structures appear in SMILES notation.

The first test has as its system HCV replicon. The experiment in a line: Cell-Based HCV Replicon Assay. The following applies: Hepatitis C virus; HCV Replicon assay, EC90 given as numeric bound, Table VI; read-out: EC90. In outline:
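EC50 and EC90 taken from sigmoid fits of ΔCT (5B minus GAPDH) as the concentrations raising ΔCT by 1 and 3.2 over baseline, via multiplex real-time RT-PCR on lysates after 3 days. Replicon cells at 5000/well; 10 two-fold dilutions from 25–1 μM, 0.5% DMSO, 10% FBS.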
(In antiviral work, replicon cells carry a viral genome segment that copies itself.)
Regarding `Cc1nc(N[C@H](C)c2c(F)c(F)c(C)c(F)c2F)nc(NC2(CO)CCCC2)c1-c1nc2c(C3CC3)nccc2s1` [Example 5128], the EC90 (as a rule, the concentration at which the effect reaches the 90% level) is over 1000 nM. On the same count and under the same terms, next, `CO[C@H](C)CN(C)c1nc(C)c(-c2nc3c(C)nccc3s2)c(N[C@@H]2C[C@H](C(C)(C)O)[C@@H](O)[C@H]2O)n1` [Example 5171]: over 1000 nM.

The same test, now with this note: Hepatitis C virus; HCV Replicon assay, EC90 range, Table VI; read-out: EC90.
Consider `Cc1nc(N)nc(NC2(CO)CCCC2)c1-c1nc2c(C3CC3)nccc2s1` [Example 5124], for which the EC90 was under 500 nM. Turning to `Cc1nc(N)nc(N[C@@H]2C[C@H]([C@@H](O)C(C)C)[C@@H](O)[C@H]2O)c1-c1nc2c(C)nccc2s1` [Example 5125], the EC90 was under 500 nM. Take `COCCNc1nc(C)c(-c2nc3c(C4CC4)nccc3s2)c(NC2(CO)CCCC2)n1` [Example 5126]: the EC90 is under 500 nM. On to `Cc1nc(NCC2(O)CCCC2)nc(NC2(CO)CCCC2)c1-c1nc2c(C3CC3)nccc2s1` [Example 5127], for which the 90% effect concentration (EC90) is under 500 nM. For the compound `Cc1nc(NCC(F)(F)C(F)(F)F)nc(NC2(CO)CCCC2)c1-c1nc2c(C3CC3)nccc2s1` [Example 5129], the EC90 was under 500 nM. For `Cc1nc(N)nc(NC2(CO)CCCC2)c1-c1nc2c(C)nccc2s1` [Example 5130], the EC90 is under 500 nM.

Turning to `COCCNc1nc(C)c(-c2nc3c(C)nccc3s2)c(NC2(CO)CCCC2)n1` [Example 5131], the EC90 was under 500 nM. On to `Cc1nc(NCC2CC2)nc(NC2(CO)CCCC2)c1-c1nc2c(C)nccc2s1` [Example 5132], for which the EC90 was under 500 nM. For the compound `Cc1nc(NCC2(O)CCCC2)nc(NC2(CO)CCCC2)c1-c1nc2c(C)nccc2s1` [Example 5133], the EC90 was under 500 nM. On the same count and under the same terms, to `Cc1nc(NCC(F)(F)C(F)(F)F)nc(NC2(CO)CC2)c1-c1nc2c(C)nccc2s1` [Example 5134] belongs under 500 nM; to `CO[C@@H](CNc1nc(C)c(-c2nc3c(C)nccc3s2)c(N[C@@H]2C[C@H](C(C)(C)O)[C@@H](O)[C@H]2O)n1)c1ccccc1` [Example 5135], under 500 nM. Turning to `CO[C@H]1CCCC[C@@H]1Nc1nc(C)c(-c2nc3c(C)nccc3s2)c(N[C@@H]2C[C@H](CO)[C@@H](O)[C@H]2O)n1` [Example 5136], the EC90 is under 500 nM. As to `CO[C@H]1CCCC[C@@H]1Nc1nc(C)c(-c2nc3c(C)nccc3s2)c(N[C@@H]2C[C@H](C(C)(C)O)[C@@H](O)[C@H]2O)n1` [Example 5137], the EC90 was 500 to 5000 nM.

Turning to `CO[C@H]1CCCC[C@@H]1Nc1nc(C)c(-c2nc3c(C4CC4)nccc3s2)c(N[C@@H]2C[C@H](CO)[C@@H](O)[C@H]2O)n1` [Example 5138], the concentration for an effect of 90% (EC90) is under 500 nM. Same read-out and setting: to `CO[C@@H]1CCCC[C@H]1Nc1nc(C)c(-c2nc3c(C)nccc3s2)c(N[C@@H]2C[C@H](CO)[C@@H](O)[C@H]2O)n1` [Example 5139] belongs under 500 nM; to `CO[C@@H]1CCCC[C@H]1Nc1nc(C)c(-c2nc3c(C)nccc3s2)c(N[C@@H]2C[C@H](C(C)(C)O)[C@@H](O)[C@H]2O)n1` [Example 5140], under 500 nM; to `CO[C@@H]1CCCC[C@H]1Nc1nc(C)c(-c2nc3c(C4CC4)nccc3s2)c(N[C@@H]2C[C@H](CO)[C@@H](O)[C@H]2O)n1` [Example 5141], under 500 nM. Regarding `CO[C@@H]1CCC[C@@H]1Nc1nc(C)c(-c2nc3c(C4CC4)nccc3s2)c(N[C@@H]2C[C@H](CO)[C@@H](O)[C@H]2O)n1` [Example 5142], the EC90 was under 500 nM.

For `CO[C@@H]1CCC[C@@H]1Nc1nc(C)c(-c2nc3c(C)nccc3s2)c(N[C@@H]2C[C@H](CO)[C@@H](O)[C@H]2O)n1` [Example 5143], the EC90 was under 500 nM. For `CO[C@@H]1CCC[C@@H]1Nc1nc(C)c(-c2nc3c(C)nccc3s2)c(N[C@@H]2C[C@H](C(C)(C)O)[C@@H](O)[C@H]2O)n1` [Example 5144], the EC90 fell in the range of 500 to 5000 nM. Still for that read-out and setting: next, `CO[C@@H]1CCC[C@@H]1Nc1nc(C)c(-c2nc3c(C)nccc3s2)c(N[C@@H]2C[C@H](C(C)(C)Cl)[C@@H](O)[C@H]2O)n1` [Example 5145]: under 500 nM.

On to `CO[C@H]1CCC[C@@H]1Nc1nc(C)c(-c2nc3c(C)nccc3s2)c(N[C@@H]2C[C@H](CO)[C@@H](O)[C@H]2O)n1` [Example 5146], for which the EC90 was under 500 nM.

Take `CO[C@H]1CCC[C@@H]1Nc1nc(C)c(-c2nc3c(C4CC4)nccc3s2)c(N[C@@H]2C[C@H](CO)[C@@H](O)[C@H]2O)n1` [Example 5147]: the EC90 was under 500 nM. For the compound `Cc1nc(N[C@@H]2CCCC[C@H]2O)nc(N[C@@H]2C[C@H](CO)[C@@H](O)[C@H]2O)c1-c1nc2c(C)nccc2s1` [Example 5148], the EC90 was under 500 nM. The same measure, in the same setting: to `Cc1nc(N[C@H]2CCC[C@H]2O)nc(N[C@@H]2C[C@H](CO)[C@@H](O)[C@H]2O)c1-c1nc2c(C)nccc2s1` [Example 5149] belongs under 500 nM; to `Cc1nc(N[C@H]2CCC[C@@H]2O)nc(N[C@@H]2C[C@H](CO)[C@@H](O)[C@H]2O)c1-c1nc2c(C)nccc2s1` [Example 5150], under 500 nM. Still for that read-out and setting: next, `Cc1nc(N)nc(N[C@H]2CCC[C@@H]2O)c1-c1nc2c(C)nccc2s1` [Example 5151]: under 500 nM; `Cc1nc(NC2(C)CCC2)nc(N[C@@H]2C[C@H](CS(C)(=O)=O)[C@@H](O)[C@H]2O)c1-c1nc2c(C)nccc2s1` [Example 5152]: under 500 nM. On to `Cc1nc(NC2(C)CCC2)nc(N[C@@H]2C[C@H](C(C)(C)O)[C@@H](O)[C@H]2O)c1-c1nc2c(C)nccc2s1` [Example 5153], for which the EC90 was under 500 nM. Regarding `Cc1nc(NCC(F)(F)F)nc(N[C@H]2CCC[C@@H]2O)c1-c1nc2c(C)nccc2s1` [Example 5154], the EC90 was under 500 nM. The same measure, in the same setting: to `COCCNc1nc(C)c(-c2nc3c(C)nccc3s2)c(N[C@H]2CCC[C@@H]2O)n1` [Example 5155] belongs under 500 nM; to `Cc1nc(NCC2CC2)nc(N[C@H]2CCC[C@@H]2O)c1-c1nc2c(C)nccc2s1` [Example 5156], under 500 nM. As for `Cc1nc(NCC2CC2)nc(N[C@H]2C=C[C@@H](CO)C2)c1-c1nc2c(C)nccc2s1` [Example 5157], the EC90 was under 500 nM. Turning to `Cc1nc(NCC2(O)CCCC2)nc(N[C@H]2C=C[C@@H](CO)C2)c1-c1nc2c(C)nccc2s1` [Example 5158], the EC90 was under 500 nM.

Take `Cc1nc(NCC2(O)CCCC2)nc(N[C@H]2CC[C@@H](CO)C2)c1-c1nc2c(C)nccc2s1` [Example 5159]: the EC90 is under 500 nM. Same read-out and setting: to `Cc1nc(N[C@@H](CO)Cc2ccccc2)nc(N[C@@H]2C[C@H](C(C)(C)O)[C@@H](O)[C@H]2O)c1-c1nc2c(C)nccc2s1` [Example 5160] belongs 500 to 5000 nM; to `COCCCNc1nc(C)c(-c2nc3c(C)nccc3s2)c(N[C@@H]2C[C@H](C(C)(C)O)[C@@H](O)[C@H]2O)n1` [Example 5161], under 500 nM.

Take `Cc1nc(N[C@@H](CO)CC(C)C)nc(N[C@@H]2C[C@H](C(C)(C)O)[C@@H](O)[C@H]2O)c1-c1nc2c(C)nccc2s1` [Example 5162]: the concentration for an effect of 90% (EC90) is under 500 nM.

As to `Cc1nc(NC(C)CCCC(C)(C)O)nc(N[C@@H]2C[C@H](C(C)(C)O)[C@@H](O)[C@H]2O)c1-c1nc2c(C)nccc2s1` (stereo partly drawn) [Example 5163], the EC90 was under 500 nM. In the case of `Cc1nc(NCC(F)(F)C(F)(F)C(F)(F)F)nc(N[C@H]2C=C[C@@H](CO)C2)c1-c1nc2c(C)nccc2s1` [Example 5164], the EC90 was under 500 nM.

`Cc1nc(NCC(F)(F)C(F)(F)F)nc(N[C@H]2C=C[C@@H](CO)C2)c1-c1nc2c(C)nccc2s1` [Example 5165]: the EC90 was under 500 nM. Same read-out and setting: next, `Cc1nc(NCC(F)(F)C(F)(F)C(F)(F)F)nc(N[C@H]2CC[C@@H](CO)C2)c1-c1nc2c(C)nccc2s1` [Example 5166]: under 500 nM; `Cc1nc(N)nc(N[C@H]2C=C[C@@H](CO)C2)c1-c1nc2c(C)nccc2s1` [Example 5167]: under 500 nM; `Cc1nc(NCC(F)(F)C(F)(F)F)nc(N[C@H]2CC[C@@H](CO)C2)c1-c1nc2c(C)nccc2s1` [Example 5168]: under 500 nM.

For the compound `Cc1nc(N[C@H](C)c2c(F)c(F)c(C)c(F)c2F)nc(N[C@H]2C=C[C@@H](CO)C2)c1-c1nc2c(C)nccc2s1` [Example 5169], the EC90 was under 500 nM.

For the compound `Cc1nc(NCC2(O)CC2)nc(N[C@H]2C=C[C@@H](CO)C2)c1-c1nc2c(C)nccc2s1` [Example 5170], the concentration for an effect of 90% (EC90) is under 500 nM. For the compound `Cc1nc(N[C@H](C)C2CC2)nc(N[C@@H]2C[C@H](C(C)(F)F)[C@@H](O)[C@H]2O)c1-c1nc2c(C3CC3)nccc2s1` [Example 5172], the EC90 was under 500 nM.

On to `Cc1nc(NC2CC2)nc(N[C@@H]2C[C@H](C(C)(F)F)[C@@H](O)[C@H]2O)c1-c1nc2c(C3CC3)nccc2s1` [Example 5173], for which the EC90 was under 500 nM. Still for that read-out and setting: next, `CCCNc1nc(C)c(-c2nc3c(C4CC4)nccc3s2)c(N[C@@H]2C[C@H](C(C)(F)F)[C@@H](O)[C@H]2O)n1` [Example 5174]: under 500 nM; `Cc1nc(NCC(C)C)nc(N[C@@H]2C[C@H](C(C)(F)F)[C@@H](O)[C@H]2O)c1-c1nc2c(C3CC3)nccc2s1` [Example 5175]: under 500 nM; `Cc1nc(NCC(C)(C)C)nc(N[C@@H]2C[C@H](C(C)(F)F)[C@@H](O)[C@H]2O)c1-c1nc2c(C3CC3)nccc2s1` [Example 5176]: under 500 nM. Same read-out and setting: to `Cc1nc(NCC2CC(F)(F)C2)nc(N[C@@H]2C[C@H](C(C)(F)F)[C@@H](O)[C@H]2O)c1-c1nc2c(C3CC3)nccc2s1` [Example 5177] belongs under 500 nM. Still for that read-out and setting: next, `Cc1nc(NC2CC2)nc(N[C@@H]2C[C@H](C(F)F)[C@@H](O)[C@H]2O)c1-c1nc2c(C3CC3)nccc2s1` [Example 5178]: under 500 nM; `CCCNc1nc(C)c(-c2nc3c(C4CC4)nccc3s2)c(N[C@@H]2C[C@H](C(F)F)[C@@H](O)[C@H]2O)n1` [Example 5179]: under 500 nM. `Cc1nc(NCC(C)C)nc(N[C@@H]2C[C@H](C(F)F)[C@@H](O)[C@H]2O)c1-c1nc2c(C3CC3)nccc2s1` [Example 5180]: the EC90 is under 500 nM.
